Non-standard residues stand in square brackets, D forms with d. Residues, ends and D or L forms follow the SMILES beside them. pT = C[C@@H](OP(=O)(O)O)[C@H](N)C(=O)O; pS = N[C@@H](COP(=O)(O)O)C(=O)O

The target of the first assay is T1, 14-3-3ζ (Homo sapiens, UniProt P63104).
T1 construct: Full-length expression and purification of 14-3-3; made in house; host or cells: E. coli BL21 (DE3)STAR
T1 sequence (P63104 1-245): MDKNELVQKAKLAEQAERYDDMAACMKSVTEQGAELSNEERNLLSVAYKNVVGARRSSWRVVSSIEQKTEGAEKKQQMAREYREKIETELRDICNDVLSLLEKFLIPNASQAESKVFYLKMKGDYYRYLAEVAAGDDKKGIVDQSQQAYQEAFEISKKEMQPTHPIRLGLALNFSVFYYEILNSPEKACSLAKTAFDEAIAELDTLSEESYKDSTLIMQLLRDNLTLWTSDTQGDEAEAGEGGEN
The assay can be described thus: FP assay with GR phosphorylated peptides and 14-3-3ζ. It counts as binding. As to conditions: FP, doubly phosphorylated 31-mer peptides, triplicates; read-out: Kd with 14-3-3ζ (values in nM). The method, then: After 30-min incubation at RT, the plates were read on a plate reader PHERAstar (BMG LABTECH GmbH) for FP signal using […] and standard excitation (485 nm) and emission (520 nm). Measurements were performed as triplicates. Binding data were fit to a standard Hill equation using the software Genedata Screener. The figures were made using the software GraphPad Prism 8. FP data were expressed as millipolarization (mP) units, and the dynamic range (ΔmP) was the difference of the signals from the bound peptide and free peptide. Errors are the standard error of the fit.
Regarding `CC[C@H](C)[C@H](NC(=O)[C@@H](NC(=O)[C@H](C)N)[C@@H](C)O)C(=O)N[C@H](C(=O)N1CCC[C@H]1C(=O)N[C@@H](C)C(=O)N[C@H](C(=O)N[C@@H](CC(C)C)C(=O)N1CCC[C@H]1C(=O)N[C@@H](CCC(N)=O)C(=O)N[C@@H](CC(C)C)C(=O)N[C@H](C(=O)N1CCC[C@H]1C(=O)NCC(=O)NCC(=O)NCC(=O)NCC(=O)NCC(=O)N[C@@H](CCCNC(=N)N)C(=O)N[C@@H](CO)C(=O)N[C@@H](Cc1ccc(O)cc1)C(=O)N[C@@H](CCCNC(=N)N)C(=O)N[C@@H](CCC(N)=O)C(=O)N[C@@H](CO)C(=O)N[C@@H](COP(=O)(O)O)C(=O)N[C@@H](C)C(=O)N[C@@H](CC(N)=O)C(=O)N[C@@H](CC(C)C)C(=O)N[C@@H](CC(C)C)C(=O)N[C@@H](CS)C(=O)N[C@@H](Cc1ccccc1)C(=O)O)[C@@H](C)O)[C@@H](C)OP(=O)(O)O)C(C)C` [GR_K518A] (H-ATIVPA[pT]LPQLTPGGGGGRSYRQS[pS]ANLLCF-OH), the Kd stood at 110 nM.

Staying with this assay, now noted: read-out: PKd with 14-3-3ζ (converted).
On to `CC[C@H](C)[C@H](NC(=O)[C@@H](NC(=O)[C@@H](N)CCCCN)[C@@H](C)O)C(=O)N[C@H](C(=O)N1CCC[C@H]1C(=O)N[C@@H](C)C(=O)N[C@H](C(=O)N[C@@H](CC(C)C)C(=O)N1CCC[C@H]1C(=O)N[C@@H](CCC(N)=O)C(=O)N[C@@H](CC(C)C)C(=O)N[C@H](C(=O)N1CCC[C@H]1C(=O)NCC(=O)NCC(=O)NCC(=O)NCC(=O)NCC(=O)N[C@@H](CCCNC(=N)N)C(=O)N[C@@H](CO)C(=O)N[C@@H](Cc1ccc(O)cc1)C(=O)N[C@@H](CCCNC(=N)N)C(=O)N[C@@H](CCC(N)=O)C(=O)N[C@@H](CO)C(=O)N[C@@H](COP(=O)(O)O)C(=O)N[C@@H](C)C(=O)N[C@@H](CC(N)=O)C(=O)N[C@@H](CC(C)C)C(=O)N[C@@H](CC(C)C)C(=O)N[C@@H](C)C(=O)N[C@@H](Cc1ccccc1)C(=O)O)[C@@H](C)O)[C@@H](C)OP(=O)(O)O)C(C)C` [GR_C622A] (H-KTIVPA[pT]LPQLTPGGGGGRSYRQS[pS]ANLLAF-OH), for which the Kd was 63.1 nM.

`CC[C@H](C)[C@H](NC(=O)[C@@H](NC(=O)[C@@H](N)CCCCN)[C@@H](C)O)C(=O)N[C@H](C(=O)N1CCC[C@H]1C(=O)N[C@@H](C)C(=O)N[C@H](C(=O)N[C@@H](CC(C)C)C(=O)N1CCC[C@H]1C(=O)N[C@@H](CCC(N)=O)C(=O)N[C@@H](CC(C)C)C(=O)N[C@H](C(=O)N1CCC[C@H]1C(=O)NCC(=O)NCC(=O)NCC(=O)NCC(=O)NCC(=O)N[C@@H](CCCNC(=N)N)C(=O)N[C@@H](CO)C(=O)N[C@@H](Cc1ccc(O)cc1)C(=O)N[C@@H](CCCNC(=N)N)C(=O)N[C@@H](CCC(N)=O)C(=O)N[C@@H](CO)C(=O)N[C@@H](COP(=O)(O)O)C(=O)N[C@@H](C)C(=O)N[C@@H](CC(N)=O)C(=O)N[C@@H](CC(C)C)C(=O)N[C@@H](CC(C)C)C(=O)N[C@@H](CS)C(=O)N[C@@H](C)C(=O)O)[C@@H](C)O)[C@@H](C)OP(=O)(O)O)C(C)C` [GR_F623A] (H-KTIVPA[pT]LPQLTPGGGGGRSYRQS[pS]ANLLCA-OH): the Kd was 50.1 nM. As for `CC(C)C[C@H](NC(=O)[C@H](CC(N)=O)NC(=O)[C@H](C)NC(=O)[C@H](COP(=O)(O)O)NC(=O)[C@H](CO)NC(=O)[C@H](CCC(N)=O)NC(=O)[C@H](CCCNC(=N)N)NC(=O)[C@H](Cc1ccc(O)cc1)NC(=O)[C@H](CO)NC(=O)[C@H](CCCNC(=N)N)NC(=O)CNC(=O)CNC(=O)CNC(=O)CNC(=O)CNC(=O)[C@@H]1CCCN1C(=O)[C@@H](NC(=O)[C@H](CC(C)C)NC(=O)[C@H](CCC(N)=O)NC(=O)[C@@H]1CCCN1C(=O)[C@H](CC(C)C)NC(=O)[C@@H](NC(=O)[C@H](C)NC(=O)[C@@H]1CCCN1C(=O)[C@@H](NC(=O)[C@H](C)NC(=O)[C@@H](NC(=O)[C@@H](N)CCCCN)[C@@H](C)O)C(C)C)[C@@H](C)OP(=O)(O)O)[C@@H](C)O)C(=O)N[C@@H](CC(C)C)C(=O)N[C@@H](CS)C(=O)N[C@@H](Cc1ccccc1)C(=O)O` [GR_I520A] (H-KTAVPA[pT]LPQLTPGGGGGRSYRQS[pS]ANLLCF-OH), the Kd was 50.1 nM. For `CC[C@H](C)[C@H](NC(=O)[C@@H](NC(=O)[C@@H](N)CCCCN)[C@@H](C)O)C(=O)N[C@H](C(=O)N1CCC[C@H]1C(=O)N[C@@H](C)C(=O)N[C@H](C(=O)N[C@@H](C)C(=O)N1CCC[C@H]1C(=O)N[C@@H](CCC(N)=O)C(=O)N[C@@H](CC(C)C)C(=O)N[C@H](C(=O)N1CCC[C@H]1C(=O)NCC(=O)NCC(=O)NCC(=O)NCC(=O)NCC(=O)N[C@@H](CCCNC(=N)N)C(=O)N[C@@H](CO)C(=O)N[C@@H](Cc1ccc(O)cc1)C(=O)N[C@@H](CCCNC(=N)N)C(=O)N[C@@H](CCC(N)=O)C(=O)N[C@@H](CO)C(=O)N[C@@H](COP(=O)(O)O)C(=O)N[C@@H](C)C(=O)N[C@@H](CC(N)=O)C(=O)N[C@@H](CC(C)C)C(=O)N[C@@H](CC(C)C)C(=O)N[C@@H](CS)C(=O)N[C@@H](Cc1ccccc1)C(=O)O)[C@@H](C)O)[C@@H](C)OP(=O)(O)O)C(C)C` [GR_L525A] (H-KTIVPA[pT]APQLTPGGGGGRSYRQS[pS]ANLLCF-OH), the Kd was 63.1 nM. Same read-out and setting: the figure for `CC[C@H](C)[C@H](NC(=O)[C@@H](NC(=O)[C@@H](N)CCCCN)[C@@H](C)O)C(=O)N[C@H](C(=O)N1CCC[C@H]1C(=O)N[C@@H](C)C(=O)N[C@H](C(=O)N[C@@H](CC(C)C)C(=O)N1CCC[C@H]1C(=O)N[C@@H](CCC(N)=O)C(=O)N[C@@H](C)C(=O)N[C@H](C(=O)N1CCC[C@H]1C(=O)NCC(=O)NCC(=O)NCC(=O)NCC(=O)NCC(=O)N[C@@H](CCCNC(=N)N)C(=O)N[C@@H](CO)C(=O)N[C@@H](Cc1ccc(O)cc1)C(=O)N[C@@H](CCCNC(=N)N)C(=O)N[C@@H](CCC(N)=O)C(=O)N[C@@H](CO)C(=O)N[C@@H](COP(=O)(O)O)C(=O)N[C@@H](C)C(=O)N[C@@H](CC(N)=O)C(=O)N[C@@H](CC(C)C)C(=O)N[C@@H](CC(C)C)C(=O)N[C@@H](CS)C(=O)N[C@@H](Cc1ccccc1)C(=O)O)[C@@H](C)O)[C@@H](C)OP(=O)(O)O)C(C)C` [GR_L528A] (H-KTIVPA[pT]LPQATPGGGGGRSYRQS[pS]ANLLCF-OH) is 50.1 nM; for `CC[C@H](C)[C@H](NC(=O)[C@@H](NC(=O)[C@@H](N)CCCCN)[C@@H](C)O)C(=O)N[C@H](C(=O)N1CCC[C@H]1C(=O)N[C@@H](C)C(=O)N[C@H](C(=O)N[C@@H](CC(C)C)C(=O)N1CCC[C@H]1C(=O)N[C@@H](CCC(N)=O)C(=O)N[C@@H](CC(C)C)C(=O)N[C@H](C(=O)N1CCC[C@H]1C(=O)NCC(=O)NCC(=O)NCC(=O)NCC(=O)NCC(=O)N[C@@H](CCCNC(=N)N)C(=O)N[C@@H](CO)C(=O)N[C@@H](Cc1ccc(O)cc1)C(=O)N[C@@H](CCCNC(=N)N)C(=O)N[C@@H](CCC(N)=O)C(=O)N[C@@H](CO)C(=O)N[C@@H](COP(=O)(O)O)C(=O)N[C@@H](C)C(=O)N[C@@H](CC(N)=O)C(=O)N[C@@H](C)C(=O)N[C@@H](CC(C)C)C(=O)N[C@@H](CS)C(=O)N[C@@H](Cc1ccccc1)C(=O)O)[C@@H](C)O)[C@@H](C)OP(=O)(O)O)C(C)C` [GR_L620A] (H-KTIVPA[pT]LPQLTPGGGGGRSYRQS[pS]ANALCF-OH) it is 50.1 nM.

For `CC[C@H](C)[C@H](NC(=O)[C@@H](NC(=O)[C@@H](N)CCCCN)[C@@H](C)O)C(=O)N[C@H](C(=O)N1CCC[C@H]1C(=O)N[C@@H](C)C(=O)N[C@H](C(=O)N[C@@H](CC(C)C)C(=O)N1CCC[C@H]1C(=O)N[C@@H](CCC(N)=O)C(=O)N[C@@H](CC(C)C)C(=O)N[C@H](C(=O)N1CCC[C@H]1C(=O)NCC(=O)NCC(=O)NCC(=O)NCC(=O)NCC(=O)N[C@@H](CCCNC(=N)N)C(=O)N[C@@H](CO)C(=O)N[C@@H](Cc1ccc(O)cc1)C(=O)N[C@@H](CCCNC(=N)N)C(=O)N[C@@H](CCC(N)=O)C(=O)N[C@@H](CO)C(=O)N[C@@H](COP(=O)(O)O)C(=O)N[C@@H](C)C(=O)N[C@@H](CC(N)=O)C(=O)N[C@@H](CC(C)C)C(=O)N[C@@H](C)C(=O)N[C@@H](CS)C(=O)N[C@@H](Cc1ccccc1)C(=O)O)[C@@H](C)O)[C@@H](C)OP(=O)(O)O)C(C)C` [GR_L621A] (H-KTIVPA[pT]LPQLTPGGGGGRSYRQS[pS]ANLACF-OH), the Kd is 39.8 nM. Regarding `CC[C@H](C)[C@H](NC(=O)[C@@H](NC(=O)[C@@H](N)CCCCN)[C@@H](C)O)C(=O)N[C@H](C(=O)N1CCC[C@H]1C(=O)N[C@@H](C)C(=O)N[C@H](C(=O)N[C@@H](CC(C)C)C(=O)N1CCC[C@H]1C(=O)N[C@@H](CCC(N)=O)C(=O)N[C@@H](CC(C)C)C(=O)N[C@H](C(=O)N1CCC[C@H]1C(=O)NCC(=O)NCC(=O)NCC(=O)NCC(=O)NCC(=O)N[C@@H](CCCNC(=N)N)C(=O)N[C@@H](CO)C(=O)N[C@@H](Cc1ccc(O)cc1)C(=O)N[C@@H](CCCNC(=N)N)C(=O)N[C@@H](CCC(N)=O)C(=O)N[C@@H](CO)C(=O)N[C@@H](COP(=O)(O)O)C(=O)N[C@@H](C)C(=O)N[C@@H](C)C(=O)N[C@@H](CC(C)C)C(=O)N[C@@H](CC(C)C)C(=O)N[C@@H](CS)C(=O)N[C@@H](Cc1ccccc1)C(=O)O)[C@@H](C)O)[C@@H](C)OP(=O)(O)O)C(C)C` [GR_N619A] (H-KTIVPA[pT]LPQLTPGGGGGRSYRQS[pS]AALLCF-OH), the Kd was 39.8 nM.
